Test results reported in ChEMBL document CHEMBL1201862, “PubChem BioAssay data set” (2004).
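Following 48 hours of exposure in 96-well plates, responses at five concentrations were used to interpolate endpoints linearly. GI50: concentration for 50% inhibition of growth.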 Active and inactive are the calls of the source. Cut-off read from the data, not from the text of the source: active = GI50 up to about 1.1 µM and inactive = higher. Where a SMILES comes first, the peptide text is derived from it. [ ]: non-standard residue; d: D form. Ac5c = NC1(C(=O)O)CCCC1

Tests used:
Assay in all cases: DTP human tumour cell line panel, 48 h
COLO 205 = system: COLO 205
OVCAR-4 = system: OVCAR-4
U-251 = system: U-251
UO-31 = system: UO-31
NCI-H226 = system: NCI-H226
SF-268 = system: SF-268
HCT-15 = system: HCT-15
SW-620 = system: SW-620
CAKI-1 = system: CAKI-1
MCF7 = system: MCF7
786-0 = system: 786-0
MDA-MB-435 = system: MDA-MB-435
HT-29 = system: HT-29
SK-OV-3 = system: SK-OV-3
PC-3 = system: PC-3
OVCAR-8 = system: OVCAR-8
LOX IMVI = system: LOX IMVI
SF-539 = system: SF-539
SK-MEL-28 = system: SK-MEL-28
HOP-92 = system: HOP-92

SMILES	GI50 (COLO 205)	GI50 (OVCAR-4)	GI50 (U-251)	GI50 (UO-31)	GI50 (NCI-H226)	GI50 (SF-268)	GI50 (HCT-15) [µM]	GI50 (SW-620)	GI50 (CAKI-1)	GI50 (MCF7)	GI50 (786-0)	GI50 (MDA-MB-435)	GI50 (HT-29)	GI50 (SK-OV-3)	GI50 (PC-3)	GI50 (OVCAR-8)	GI50 (LOX IMVI)	GI50 (SF-539)	GI50 (SK-MEL-28)	GI50 (HOP-92)
CC(=O)NC1C(OCC(=O)NCCNc2ccc([N+](=O)[O-])c3[nH]c4ccccc4c(=O)c23)C(O)C(CO)OC1(C)OCc1ccccc1 (configuration not stated)	> 100 µM (inactive)	> 100 µM (inactive)	> 100 µM (inactive)	> 100 µM (inactive)	> 100 µM (inactive)	> 100 µM (inactive)	> 100	> 100 µM (inactive)	> 100 µM (inactive)	> 100 µM (inactive)	> 100 µM (inactive)	> 100 µM (inactive)	> 100 µM (inactive)	> 100 µM (inactive)	> 100 µM (inactive)	> 100 µM (inactive)	> 100 µM (inactive)	> 100 µM (inactive)	–	–
CCCCSC1=N/C(=C\c2ccco2)C(=O)N1	26.1 µM (inactive)	60.1 µM (inactive)	74.6 µM (inactive)	54 µM (inactive)	51.5 µM (inactive)	41.3 µM (inactive)	34.6	35.8 µM (inactive)	74.5 µM (inactive)	0.687 µM (active)	87.3 µM (inactive)	36.7 µM (inactive)	47.6 µM (inactive)	> 100 µM (inactive)	46.1 µM (inactive)	44.1 µM (inactive)	–	–	42.5 µM (inactive)	–
CN(c1ccc(Cl)cc1)S(=O)(=O)c1ccccc1	47.2 µM (inactive)	77.1 µM (inactive)	42.9 µM (inactive)	42 µM (inactive)	30.4 µM (inactive)	49 µM (inactive)	52.2	85.5 µM (inactive)	51.3 µM (inactive)	52.4 µM (inactive)	> 100 µM (inactive)	41.3 µM (inactive)	42.3 µM (inactive)	78.5 µM (inactive)	21.6 µM (inactive)	44.6 µM (inactive)	42.8 µM (inactive)	43 µM (inactive)	54.8 µM (inactive)	–
COC(=O)[C@@]12CSC[C@]1(C(=O)OC)N[C@@H](c1ccccc1O)C2	> 100 µM (inactive)	> 100 µM (inactive)	> 100 µM (inactive)	> 100 µM (inactive)	> 100 µM (inactive)	> 100 µM (inactive)	> 100	> 100 µM (inactive)	> 100 µM (inactive)	> 100 µM (inactive)	> 100 µM (inactive)	> 100 µM (inactive)	> 100 µM (inactive)	> 100 µM (inactive)	> 100 µM (inactive)	> 100 µM (inactive)	–	> 100 µM (inactive)	> 100 µM (inactive)	> 100 µM (inactive)
Clc1ccc2nc3[nH]nc(Cl)c3nc2c1	52.5 µM (inactive)	63.2 µM (inactive)	60.7 µM (inactive)	22.8 µM (inactive)	–	47.9 µM (inactive)	> 100	72.6 µM (inactive)	49.1 µM (inactive)	59.8 µM (inactive)	61.5 µM (inactive)	77.8 µM (inactive)	59.3 µM (inactive)	41.9 µM (inactive)	34.6 µM (inactive)	71.3 µM (inactive)	–	40.8 µM (inactive)	84.7 µM (inactive)	–
CCOC(=O)C1=NN(c2ccc([N+](=O)[O-])cc2)[C@@]2(C)C[C@]3(c4ccccc4)N(c4ccc([N+](=O)[O-])cc4)N=C(C(=O)OCC)N3c3ccccc3N12	> 100 µM (inactive)	> 100 µM (inactive)	> 100 µM (inactive)	> 100 µM (inactive)	> 100 µM (inactive)	> 100 µM (inactive)	> 100	> 100 µM (inactive)	> 100 µM (inactive)	> 100 µM (inactive)	> 100 µM (inactive)	> 100 µM (inactive)	> 100 µM (inactive)	> 100 µM (inactive)	> 100 µM (inactive)	> 100 µM (inactive)	> 100 µM (inactive)	> 100 µM (inactive)	> 100 µM (inactive)	–
CCOC(=O)C(CCSC)(CCSC)C(=O)OCC	> 100 µM (inactive)	> 100 µM (inactive)	> 100 µM (inactive)	> 100 µM (inactive)	> 100 µM (inactive)	> 100 µM (inactive)	> 100	> 100 µM (inactive)	> 100 µM (inactive)	> 100 µM (inactive)	> 100 µM (inactive)	> 100 µM (inactive)	> 100 µM (inactive)	27.7 µM (inactive)	> 100 µM (inactive)	> 100 µM (inactive)	> 100 µM (inactive)	> 100 µM (inactive)	> 100 µM (inactive)	–
CCOC(=O)CNC1=Nc2ccccc2C(=O)N2CSCC12 (configuration not stated)	> 100 µM (inactive)	> 100 µM (inactive)	> 100 µM (inactive)	> 100 µM (inactive)	> 100 µM (inactive)	> 100 µM (inactive)	> 100	> 100 µM (inactive)	> 100 µM (inactive)	> 100 µM (inactive)	> 100 µM (inactive)	> 100 µM (inactive)	> 100 µM (inactive)	> 100 µM (inactive)	> 100 µM (inactive)	> 100 µM (inactive)	> 100 µM (inactive)	–	> 100 µM (inactive)	–
COC(=O)C1(NC(=O)C(C)NC(=O)C(CCCCN)NC(=O)C(CC(C)C)NC(C)=O)CCCC1 (configuration not stated) (Ac-LKA[Ac5c]-OMe; configuration not given here)	> 100 µM (inactive)	> 10 µM (inactive)	–	> 100 µM (inactive)	–	> 100 µM (inactive)	> 100	> 100 µM (inactive)	–	> 100 µM (inactive)	> 100 µM (inactive)	> 100 µM (inactive)	> 100 µM (inactive)	> 100 µM (inactive)	> 100 µM (inactive)	> 100 µM (inactive)	–	> 100 µM (inactive)	> 100 µM (inactive)	–
CSc1c(C#N)c(=O)n(N)c2c1c(C)nn2-c1ccccc1	17.3 µM (inactive)	23.6 µM (inactive)	28.1 µM (inactive)	18.5 µM (inactive)	24.8 µM (inactive)	42 µM (inactive)	22.1	35.9 µM (inactive)	19.9 µM (inactive)	16.6 µM (inactive)	40.5 µM (inactive)	30.9 µM (inactive)	24.7 µM (inactive)	26.4 µM (inactive)	19.7 µM (inactive)	20.8 µM (inactive)	20.6 µM (inactive)	19 µM (inactive)	35.4 µM (inactive)	–
COc1ccccc1C1SCC(=O)N1c1ccc(-c2ccc(-n3c(-c4ccccc4)nc4ccccc4c3=O)cc2)cc1 (configuration not stated)	> 100 µM (inactive)	> 10 µM (inactive)	> 100 µM (inactive)	29.9 µM (inactive)	> 100 µM (inactive)	> 100 µM (inactive)	> 100	> 100 µM (inactive)	> 100 µM (inactive)	> 100 µM (inactive)	> 100 µM (inactive)	> 100 µM (inactive)	> 100 µM (inactive)	> 100 µM (inactive)	> 100 µM (inactive)	> 100 µM (inactive)	> 100 µM (inactive)	31 µM (inactive)	> 100 µM (inactive)	–
COC(=O)c1cc2c(cc1CC1Cc3cc4c(cc3C1=O)CCC4)CCC2 (configuration not stated)	33.3 µM (inactive)	50.4 µM (inactive)	46 µM (inactive)	> 100 µM (inactive)	56.6 µM (inactive)	> 100 µM (inactive)	36.3	29.4 µM (inactive)	> 100 µM (inactive)	34 µM (inactive)	83.8 µM (inactive)	24.7 µM (inactive)	31.7 µM (inactive)	70.3 µM (inactive)	10.7 µM (inactive)	74 µM (inactive)	41.4 µM (inactive)	58.9 µM (inactive)	76 µM (inactive)	–
Cc1ccccc1N/N=C1\C(=O)Nc2ccccc21	95.1 µM (inactive)	> 100 µM (inactive)	> 100 µM (inactive)	> 100 µM (inactive)	41.7 µM (inactive)	> 100 µM (inactive)	> 100	> 100 µM (inactive)	> 100 µM (inactive)	> 100 µM (inactive)	> 100 µM (inactive)	> 100 µM (inactive)	> 100 µM (inactive)	> 100 µM (inactive)	> 100 µM (inactive)	> 100 µM (inactive)	> 100 µM (inactive)	–	> 100 µM (inactive)	–
CCCCC/C=C1/CC(CO)(COC(=O)CC(C(C)C)C(C)C)OC1=O (configuration not stated)	3.24 µM (inactive)	26.5 µM (inactive)	14.1 µM (inactive)	11.9 µM (inactive)	12.1 µM (inactive)	16.4 µM (inactive)	18.7	18.3 µM (inactive)	10.7 µM (inactive)	17.1 µM (inactive)	8.53 µM (inactive)	6.27 µM (inactive)	19.5 µM (inactive)	18.9 µM (inactive)	10.1 µM (inactive)	17.2 µM (inactive)	–	–	13 µM (inactive)	7.35 µM (inactive)
O=CN1CCN(CC(O)CN2CCCCC2)CC1 (configuration not stated)	> 100 µM (inactive)	> 100 µM (inactive)	> 100 µM (inactive)	> 100 µM (inactive)	> 100 µM (inactive)	> 100 µM (inactive)	> 100	> 100 µM (inactive)	> 100 µM (inactive)	> 100 µM (inactive)	> 100 µM (inactive)	> 100 µM (inactive)	> 100 µM (inactive)	> 100 µM (inactive)	> 100 µM (inactive)	> 100 µM (inactive)	> 100 µM (inactive)	–	> 100 µM (inactive)	–
